Data taken from ChEMBL document CHEMBL1201862, “PubChem BioAssay data set” (2004).
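Five compound concentrations were applied to cells in 96-well plates for 48 hours; endpoints were derived by simple linear interpolation of the resulting dose-response curve. Abbreviation: GI50, concentration required for 50% inhibition of growth.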 Calls of active or inactive are those of the source. Cut-off read from the data, not from the text of the source: active = GI50 up to about 1.1 µM and inactive = higher.

Experiments:
Assay in all cases: inhibition of tumour cell growth, NCI panel, 48 h
A498 = system: A498
A549 = system: A549
BT-549 = system: BT-549
CAKI-1 = system: CAKI-1
CCRF-CEM = system: CCRF-CEM
COLO 205 = system: COLO 205
EKVX = system: EKVX
HOP-92 = system: HOP-92
HT-29 = system: HT-29
LOX IMVI = system: LOX IMVI
MCF7 = system: MCF7
MDA-MB-231 = system: MDA-MB-231
MOLT-4 = system: MOLT-4
OVCAR-4 = system: OVCAR-4
SF-295 = system: SF-295
SF-539 = system: SF-539
SNB-19 = system: SNB-19
SNB-75 = system: SNB-75
SW-620 = system: SW-620
UACC-62 = system: UACC-62

| SMILES | GI50 (A498) | GI50 (A549) | GI50 (BT-549) | GI50 (CAKI-1) | GI50 (CCRF-CEM) | GI50 (COLO 205) | GI50 (EKVX) | GI50 (HOP-92) | GI50 (HT-29) | GI50 (LOX IMVI) | GI50 (MCF7) | GI50 (MDA-MB-231) | GI50 (MOLT-4) | GI50 (OVCAR-4) | GI50 (SF-295) | GI50 (SF-539) | GI50 (SNB-19) | GI50 (SNB-75) | GI50 (SW-620) | GI50 (UACC-62) |
| --- | --- | --- | --- | --- | --- | --- | --- | --- | --- | --- | --- | --- | --- | --- | --- | --- | --- | --- | --- | --- |
| O=c1ccc2c(Cl)cccc2o1 | > 100 µM (inactive) | > 100 µM (inactive) | > 100 µM (inactive) | > 100 µM (inactive) | > 100 µM (inactive) | > 100 µM (inactive) | 58.3 µM (inactive) | > 100 µM (inactive) | > 10 µM (inactive) | > 100 µM (inactive) | > 100 µM (inactive) | > 100 µM (inactive) | > 100 µM (inactive) | > 100 µM (inactive) | > 100 µM (inactive) | > 100 µM (inactive) | > 100 µM (inactive) | > 100 µM (inactive) | > 100 µM (inactive) | > 100 µM (inactive) |
| c1ccc(CN2CCCN3CCN(CCCN(Cc4ccccc4)CC3)CC2)cc1 | 58.5 µM (inactive) | 69.5 µM (inactive) | 44.5 µM (inactive) | > 100 µM (inactive) | 46.9 µM (inactive) | 25.3 µM (inactive) | 41.9 µM (inactive) | 92 µM (inactive) | 35.9 µM (inactive) | 51.9 µM (inactive) | 38.3 µM (inactive) | 38.2 µM (inactive) | 81.3 µM (inactive) | 35.6 µM (inactive) | 87.7 µM (inactive) | 87.7 µM (inactive) | 35.5 µM (inactive) | 32 µM (inactive) | > 100 µM (inactive) | 35.1 µM (inactive) |
| O=C1C=CC(=O)N1c1ccc2c(c1)Cc1cc(NC(=O)C(F)(F)F)ccc1-2 | 20 µM (inactive) | 17.9 µM (inactive) | 16.6 µM (inactive) | 16 µM (inactive) | 3.96 µM (inactive) | 13.1 µM (inactive) | 14.9 µM (inactive) | 16.8 µM (inactive) | 10.2 µM (inactive) | 18 µM (inactive) | 15.1 µM (inactive) | 16.4 µM (inactive) | 4.25 µM (inactive) | 17.3 µM (inactive) | > 100 µM (inactive) | 18 µM (inactive) | > 47 µM (inactive) | 16.1 µM (inactive) | 9.84 µM (inactive) | 16.8 µM (inactive) |
| N#Cc1c(N2CCCC2)nsc1NCc1ccccc1 | > 100 µM (inactive) | > 100 µM (inactive) | > 100 µM (inactive) | > 100 µM (inactive) | > 100 µM (inactive) | > 100 µM (inactive) | > 100 µM (inactive) | 54.1 µM (inactive) | > 100 µM (inactive) | > 100 µM (inactive) | > 100 µM (inactive) | > 100 µM (inactive) | > 100 µM (inactive) | > 100 µM (inactive) | > 100 µM (inactive) | > 100 µM (inactive) | > 100 µM (inactive) | > 100 µM (inactive) | > 100 µM (inactive) | 75.2 µM (inactive) |
| [O-]c1c2cc(-[n+]3c(-c4ccccc4)cc(-c4ccccc4)cc3-c3ccccc3)cc1CO[C@@H](c1ccccc1)[C@H](c1ccccc1)OCCOCCO[C@@H](c1ccccc1)[C@H](c1ccccc1)OC2 | 0.5 µM (active) | 0.0451 µM (active) | 0.0356 µM (active) | 0.335 µM (active) | 0.048 µM (active) | 0.0195 µM (active) | 0.109 µM (active) | 0.0857 µM (active) | 0.0386 µM (active) | 0.0577 µM (active) | 0.0382 µM (active) | 0.104 µM (active) | 0.0397 µM (active) | 0.107 µM (active) | 0.0719 µM (active) | 0.408 µM (active) | 0.0489 µM (active) | 0.0486 µM (active) | 0.0562 µM (active) | 0.0577 µM (active) |
| O=C(/C=C/c1cc(O)c(O)cc1O)OCCc1ccccc1 | 21.2 µM (inactive) | > 67.8 µM (inactive) | 25.7 µM (inactive) | 24.5 µM (inactive) | 2.07 µM (inactive) | 11.2 µM (inactive) | 41.4 µM (inactive) | 7.6 µM (inactive) | 18.4 µM (inactive) | 12.9 µM (inactive) | 15 µM (inactive) | 23.5 µM (inactive) | 2.87 µM (inactive) | 17.7 µM (inactive) | 29.4 µM (inactive) | 18.6 µM (inactive) | 61.7 µM (inactive) | 56 µM (inactive) | 5.19 µM (inactive) | 17.9 µM (inactive) |
| CCOP(=O)(O)C(Nc1ccc(/N=N/c2ccccc2)cc1)c1cccc(C(Nc2ccc(/N=N/c3ccccc3)cc2)P(=O)(O)OCC)c1 (stereo not given) | 23 µM (inactive) | 34.2 µM (inactive) | 45.2 µM (inactive) | 66.1 µM (inactive) | 15.5 µM (inactive) | 21.6 µM (inactive) | 57.4 µM (inactive) | 41.4 µM (inactive) | 20.1 µM (inactive) | 19.9 µM (inactive) | 35.2 µM (inactive) | 58.6 µM (inactive) | 16.7 µM (inactive) | 47.2 µM (inactive) | 24 µM (inactive) | 33.9 µM (inactive) | 59.8 µM (inactive) | 44.4 µM (inactive) | 35.2 µM (inactive) | 29.4 µM (inactive) |
| CC(=O)N/N=C1\NC(=O)C[C@H]2[C@@H]3CC=C4C[C@@H](OC(C)=O)CC[C@]4(C)[C@H]3CC[C@]12C | 18.7 µM (inactive) | 34.2 µM (inactive) | 12.4 µM (inactive) | > 100 µM (inactive) | > 100 µM (inactive) | 45.3 µM (inactive) | 36.1 µM (inactive) | 15.9 µM (inactive) | 31.4 µM (inactive) | 35.4 µM (inactive) | 46.9 µM (inactive) | 18.7 µM (inactive) | > 100 µM (inactive) | 11.2 µM (inactive) | 14.1 µM (inactive) | 7.33 µM (inactive) | 17.4 µM (inactive) | 20.9 µM (inactive) | 23.7 µM (inactive) | 16.8 µM (inactive) |
| CC1=C(/C=C/Cl)CC(Cl)C(C)(Cl)C1 (stereo not given) | > 100 µM (inactive) | > 100 µM (inactive) | > 100 µM (inactive) | > 100 µM (inactive) | 19.6 µM (inactive) | > 100 µM (inactive) | > 100 µM (inactive) | 53 µM (inactive) | 55.8 µM (inactive) | > 100 µM (inactive) | 40 µM (inactive) | > 100 µM (inactive) | 63.5 µM (inactive) | 83.8 µM (inactive) | > 100 µM (inactive) | > 100 µM (inactive) | > 100 µM (inactive) | > 100 µM (inactive) | > 100 µM (inactive) | > 100 µM (inactive) |
| COC1(O)C(=O)c2ccccc2OC1(OC)c1ccccc1 (stereo not given) | > 100 µM (inactive) | > 100 µM (inactive) | > 100 µM (inactive) | > 100 µM (inactive) | 46.8 µM (inactive) | > 100 µM (inactive) | > 100 µM (inactive) | > 100 µM (inactive) | > 100 µM (inactive) | 65.9 µM (inactive) | 48.9 µM (inactive) | > 100 µM (inactive) | 75.2 µM (inactive) | > 100 µM (inactive) | > 100 µM (inactive) | > 100 µM (inactive) | > 100 µM (inactive) | > 100 µM (inactive) | > 100 µM (inactive) | > 100 µM (inactive) |
| N#Cc1cc(-c2nc3ccc(F)cc3s2)ccc1N | > 100 µM (inactive) | > 100 µM (inactive) | > 100 µM (inactive) | > 100 µM (inactive) | > 100 µM (inactive) | 28.9 µM (inactive) | 31.8 µM (inactive) | > 100 µM (inactive) | > 100 µM (inactive) | 74.8 µM (inactive) | 18 µM (inactive) | > 100 µM (inactive) | > 100 µM (inactive) | > 100 µM (inactive) | > 100 µM (inactive) | 51.1 µM (inactive) | > 100 µM (inactive) | 14.7 µM (inactive) | > 100 µM (inactive) | > 100 µM (inactive) |
| O=[N+]([O-])c1cc2no[n+]([O-])c2cc1N1CCCCC1 | 17.9 µM (inactive) | 11.3 µM (inactive) | 9.29 µM (inactive) | 3.35 µM (inactive) | 0.38 µM (active) | 5.37 µM (inactive) | 2.58 µM (inactive) | 2.4 µM (inactive) | 1.76 µM (inactive) | 1.79 µM (inactive) | 1.95 µM (inactive) | 8.47 µM (inactive) | 1.06 µM (active) | 2.25 µM (inactive) | 17.4 µM (inactive) | 2.39 µM (inactive) | 16.3 µM (inactive) | 2.39 µM (inactive) | 1.97 µM (inactive) | 13.4 µM (inactive) |
| CC(Oc1ccccc1Cl)C(=O)NN1C(=O)CC(=O)N(c2ccc(Cl)cc2)C1=S (stereo not given) | 20.4 µM (inactive) | 36.5 µM (inactive) | 55.1 µM (inactive) | 40.7 µM (inactive) | < 0.01 µM (active) | 39.7 µM (inactive) | 45.4 µM (inactive) | 22.6 µM (inactive) | 47.8 µM (inactive) | 30.8 µM (inactive) | 29.6 µM (inactive) | 40.4 µM (inactive) | 27.4 µM (inactive) | 28.1 µM (inactive) | 44.1 µM (inactive) | 75.5 µM (inactive) | 66.5 µM (inactive) | 47.5 µM (inactive) | 52 µM (inactive) | 30.3 µM (inactive) |
| O=C(O)CN1CCN2CCCCCCCCN(CC1)CCN(CC(=O)O)CC2 | > 100 µM (inactive) | > 100 µM (inactive) | > 100 µM (inactive) | > 100 µM (inactive) | > 100 µM (inactive) | > 100 µM (inactive) | > 100 µM (inactive) | > 100 µM (inactive) | 43.5 µM (inactive) | > 100 µM (inactive) | > 100 µM (inactive) | > 100 µM (inactive) | > 100 µM (inactive) | > 100 µM (inactive) | > 100 µM (inactive) | > 100 µM (inactive) | > 100 µM (inactive) | 21.9 µM (inactive) | > 100 µM (inactive) | > 100 µM (inactive) |
